Earlier results as cited in patent US20220071932A1, “Compositions and Methods Against Stress-Induced Affective Disorders and Their Associated Symptoms” (The Trustees of Columbia University in the City of New York, priority 2019, published 2022).

Test system: depressive symptoms in patients
Conditions: patients diagnosed with MDD; cited from earlier work

CC12CC3CC(C)(C1)CC(N)(C3)C2 [memantine]
reduction of depressive symptoms: does not reduce depressive symptoms
